Where a name gives a salt, the structure may show the parent alone.
Biological target: T1, IRAK-M (Homo sapiens, UniProt Q9Y616)
T1 sequence (Q9Y616 1-596): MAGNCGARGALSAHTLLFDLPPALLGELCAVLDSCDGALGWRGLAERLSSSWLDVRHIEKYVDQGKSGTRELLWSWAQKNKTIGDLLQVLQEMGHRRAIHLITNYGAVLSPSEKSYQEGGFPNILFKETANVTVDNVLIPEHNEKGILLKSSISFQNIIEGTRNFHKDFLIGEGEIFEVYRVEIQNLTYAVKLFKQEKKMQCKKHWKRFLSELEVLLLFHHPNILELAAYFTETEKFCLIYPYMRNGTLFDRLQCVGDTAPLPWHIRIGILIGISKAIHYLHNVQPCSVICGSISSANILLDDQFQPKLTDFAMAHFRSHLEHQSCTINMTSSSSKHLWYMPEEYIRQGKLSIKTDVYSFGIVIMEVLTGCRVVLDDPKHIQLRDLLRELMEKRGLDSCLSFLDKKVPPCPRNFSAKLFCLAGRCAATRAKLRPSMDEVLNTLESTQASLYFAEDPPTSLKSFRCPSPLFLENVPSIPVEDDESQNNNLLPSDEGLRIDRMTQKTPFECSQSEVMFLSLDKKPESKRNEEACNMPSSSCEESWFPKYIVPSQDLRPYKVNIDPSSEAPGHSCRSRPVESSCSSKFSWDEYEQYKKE
Assay: IRAK-M binding inhibitory activity (KINOMEscan active site-dependent competitive assay)
Set-up: purchased Eurofins Discover X
Details: concentration of the test compound 1 μM; first symbol of cell; read-out: IRAK-M binding inhibition activity % Ctrl
Procedure: IRAK-M binding inhibitory activity was evaluated using active site-dependent competitive assay KINOMEscan® provided by Eurofins Discover X (Goldstein, D. M. et al. High-throughput kinase profiling as a platform for drug discovery. Nat. Rev. Drug Discovery. 7, 391-397 (2008)). IRAK-M binding inhibitory activity of the test compound was evaluated. […] The “% Ctrl” is calculated by the following formula.
(test compound signal−positive control compound signal)/(negative control compound signal−positive control compound signal)×100
Negative control compound=DMSO (100 Ctrl)
Positive control compound=control compound (0%×Ctrl)

remaining binding at 1 µM [%]	SMILES
< 25	c1cc(OC2CCN(Cc3cc(OC[C@@H]4CCCN4)no3)CC2)c2sccc2n1 [Ref. example 10, (S)-3-(Pyrrolidin-2-ylmethoxy)-5-((4-(thieno[3,2-b]pyridin-7-yloxy)piperidin-1-yl)methyl)isoxazole trihydrochloride]
50 to 75	NC(=O)c1ccc(Nc2ncnc3ccsc23)c(OC2CCOC2)c1 (stereo not drawn) [Ref. example 11, 3-((tetrahydrofuran-3-yl)oxy)-4-(thieno[3,2-d]pyrimidin-4-ylamino)benzamide]
≥ 75	c1ccc(Nc2ncnc3cc(-c4ccccc4)sc23)cc1 [Ref. example 12, N,6-diphenylthieno[3,2-d]pyrimidin-4-amine]
≥ 75	COc1ccccc1Nc1ncnc2cc(-c3ccccc3)sc12 [Ref. example 13, N-(2-methoxyphenyl)-6-phenylthieno[3,2-d]pyrimidin-4-amine]
25 to 50	c1ccc(-c2cc3ncnc(NCC4CC4)c3s2)cc1 [Ref. example 14, N-(cyclopropylmethyl)-6-phenylthieno[3,2-d]pyrimidin-4-amine]
25 to 50	c1ccc(-c2cc3ncnc(Nc4ccccn4)c3s2)cc1 [Ref. example 15, 6-phenyl-N-(pyridin-2-yl)thieno[3,2-d]pyrimidin-4-amine]
50 to 75	c1ccc(-c2cc3ncnc(NCc4cccnc4)c3s2)cc1 [Ref. example 16, 6-phenyl-N-(pyridin-3-ylmethyl)thieno[3,2-d]pyrimidin-4-amine]
≥ 75	c1ccc(CCNc2ncnc3cc(-c4ccccc4)sc23)cc1 [Ref. example 17, N-phenethyl-6-phenylthieno[3,2-d]pyrimidin-4-amine]
50 to 75	NC(=O)c1ccc(Nc2ncnc3ccsc23)cc1 [Ref. example 18, 4-(thieno[3,2-d]pyrimidin-4-ylamino)benzamide]
50 to 75	c1ccc(OC2CCOC2)c(Nc2ncnc3ccsc23)c1 (stereo not drawn) [Ref. example 19, N-(2-((tetrahydrofuran-3-yl)oxy)phenyl)thieno[3,2-d]pyrimidin-4-amine]
50 to 75	NC(=O)c1cccc(Nc2ncnc3ccsc23)c1 [Ref. example 20, 3-(thieno[3,2-d]pyrimidin-4-ylamino)benzamide]

Second part, the molecule before the results:

SMILES	remaining binding at 1 µM [%]
C=CCOc1cc(C(C)N2CCC(Oc3ccnc4cc(C)sc34)CC2)on1 (racemic) [Ref. example 7, 3-(allyloxy)-5-(1-(4-((2-methylthieno[3,2-b]pyridin-7-yl)oxy)piperidin-1-yl)ethyl)isoxazole (racemate)]	< 25
Cc1ncsc1-c1ccc(CNC(=O)[C@@H]2C[C@@H](O)CN2C(=O)[C@H](C(C)C)N2Cc3ccccc3C2=O)c(OCCOCCOCCOc2cc(CN3CCC(Oc4ccnc5ccsc45)CC3)on2)c1 [Example 62, (2S,4R)-4-hydroxy-1-((S)-3-methyl-2-(1-oxoisoindolin-2-yl)butanoyl)-N-(4-(4-methylthiazol-5-yl)-2-(2-(2-(2-((5-((4-(thieno[3,2-b]pyridin-7-yloxy)piperidin-1-yl)methyl)isoxazol-3-yl)oxy)ethoxy)ethoxy)ethoxy)benzyl)pyrrolidine-2-carboxamide]	50 to 75
Cc1ncsc1-c1ccc(CNC(=O)[C@@H]2C[C@@H](O)CN2C(=O)[C@H](C(C)C)N2Cc3ccccc3C2=O)c(OCCOCCOc2cc(CN3CCC(Oc4ccnc5ccsc45)CC3)on2)c1 [Example 63, (2S,4R)-4-hydroxy-1-((S)-3-methyl-2-(1-oxoisoindolin-2-yl)butanoyl)-N-(4-(4-methylthiazol-5-yl)-2-(2-(2-((5-((4-(thieno[3,2-b]pyridin-7-yloxy)piperidin-1-yl)methyl)isoxazol-3-yl)oxy)ethoxy)ethoxy)benzyl)pyrrolidine-2-carboxamide]	< 25
Cc1ncsc1-c1ccc(CNC(=O)[C@@H]2C[C@@H](O)CN2C(=O)[C@H](C(C)C)N2Cc3ccccc3C2=O)c(OCCOCCOCCOCCOc2cc(CN3CCC(Oc4ccnc5ccsc45)CC3)on2)c1 [Example 64, (2S,4R)-4-hydroxy-1-((S)-3-methyl-2-(1-oxoisoindolin-2-yl)butanoyl)-N-(4-(4-methylthiazol-5-yl)-2-(2-(2-(2-(2-((5-((4-(thieno[3,2-b]pyridin-7-yloxy)piperidin-1-yl)methyl)isoxazol-3-yl)oxy)ethoxy)ethoxy)ethoxy)ethoxy)benzyl)pyrrolidine-2-carboxamide]	≥ 75
Cc1ccc(NS(=O)(=O)c2ccc(CNC(=O)COCCOCCOc3cc(CN4CCC(Oc5ccnc6ccsc56)CC4)on3)cc2)c2[nH]cc(C#N)c12 [Example 68, N-(4-(N-(3-cyano-4-methyl-1H-indol-7-yl)sulfamoyl)benzyl)-2-(2-(2-((5-((4-(thieno[3,2-b]pyridin-7-yloxy)piperidin-1-yl)methyl)isoxazol-3-yl)oxy)ethoxy)ethoxy)acetamide]	25 to 50
Cc1ccc(NS(=O)(=O)c2ccc(CNC(=O)COCCOCCOCCOc3cc(CN4CCC(Oc5ccnc6ccsc56)CC4)on3)cc2)c2[nH]cc(C#N)c12 [Example 69, N-(4-(N-(3-cyano-4-methyl-1H-indol-7-yl)sulfamoyl)benzyl)-2-(2-(2-(2-((5-((4-(thieno[3,2-b]pyridin-7-yloxy)piperidin-1-yl)methyl)isoxazol-3-yl)oxy)ethoxy)ethoxy)ethoxy)acetamide]	25 to 50
Cc1ccc(NS(=O)(=O)c2ccc(CNC(=O)COCCOc3cc(CN4CCC(Oc5ccnc6ccsc56)CC4)on3)cc2)c2[nH]cc(C#N)c12 [Example 70, N-(4-(N-(3-cyano-4-methyl-1H-indol-7-yl)sulfamoyl)benzyl)-2-(2-((5-((4-(thieno[3,2-b]pyridin-7-yloxy)piperidin-1-yl)methyl)isoxazol-3-yl)oxy)ethoxy)acetamide]	< 25
Oc1cc(CN2CCC(Oc3ccnc4ccsc34)CC2)on1 [Ref. example 4, 5-((4-(thieno[3,2-b]pyridin-7-yloxy)piperidin-1-yl)methyl)isoxazol-3-ol]	50 to 75
C=CCOc1cc(C(C)N2CCC(Oc3ccnc4cc(C)sc34)CC2)on1 (stereo not drawn) [Ref. example 8, 3-(allyloxy)-5-(1-(4-((2-methylthieno[3,2-b]pyridin-7-yl)oxy)piperidin-1-yl)ethyl)isoxazole (enantiomer)]	< 25

Same assay, conditions: second symbol of cell; read-out: IRAK-M binding inhibition IC50 value

IC50 [nM]	SMILES
30 to 100	C=CCOc1cc(C(C)N2CCC(Oc3ccnc4ccsc34)CC2)on1 (single isomer, unassigned) [Ref. example 5, 3-(allyloxy)-5-(1-(4-(thieno[3,2-b]pyridin-7-yloxy)piperidin-1-yl)ethyl)isoxazole (enantiomer)]
100 to 300	C=CCOc1cc(C(C)N2CCC(Oc3ccnc4ccsc34)CC2)on1 (single isomer, unassigned) [Ref. example 6, 3-(allyloxy)-5-(1-(4-(thieno[3,2-b]pyridin-7-yloxy)piperidin-1-yl)ethyl)isoxazole (enantiomer)]
100 to 300	C=CCOc1cc(CN2CCC(Oc3ccnc4ccsc34)CC2)on1 [Ref. example 3]

Continued, molecule first:

SMILES	IC50 [nM]
Cc1ncsc1-c1ccc(CNC(=O)[C@@H]2C[C@@H](O)CN2C(=O)[C@@H](NC(=O)COCCOCCOCCOc2cc(CN3CCC(Oc4ccnc5ccsc45)CC3)on2)C(C)(C)C)cc1 [Example 61, (2S,4R)-1-((S)-2-(tert-butyl)-4-oxo-14-((5-((4-(thieno[3,2-b]pyridin-7-yloxy)piperidin-1-yl)methyl)isoxazol-3-yl)oxy)-6,9,12-trioxa-3-azatetradecanoyl)-4-hydroxy-N-(4-(4-methylthiazol-5-yl)benzyl)pyrrolidine-2-carboxamide]	300 to 1000
O=C1CCC(N2C(=O)c3cccc(OCCOCCOCCOc4cc(CN5CCC(Oc6ccnc7ccsc67)CC5)on4)c3C2=O)C(=O)N1 (stereo not drawn) [Example 65, 2-(2,6-dioxopiperidin-3-yl)-4-(2-(2-(2-((5-((4-(thieno[3,2-b]pyridin-7-yloxy)piperidin-1-yl)methyl)isoxazol-3-yl)oxy)ethoxy)ethoxy)ethoxy)isoindoline-1,3-dione]	300 to 1000
O=C1CCC(N2C(=O)c3cccc(OCCOCCOc4cc(CN5CCC(Oc6ccnc7ccsc67)CC5)on4)c3C2=O)C(=O)N1 (stereo not drawn) [Example 66, 2-(2,6-dioxopiperidin-3-yl)-4-(2-(2-((5-((4-(thieno[3,2-b]pyridin-7-yloxy)piperidin-1-yl)methyl)isoxazol-3-yl)oxy)ethoxy)ethoxy)isoindoline-1,3-dione]	100 to 300
O=C1CCC(N2C(=O)c3cccc(OCCOCCOCCOCCOc4cc(CN5CCC(Oc6ccnc7ccsc67)CC5)on4)c3C2=O)C(=O)N1 (stereo not drawn) [Example 67, 2-(2,6-dioxopiperidin-3-yl)-4-(2-(2-(2-(2-((5-((4-(thieno[3,2-b]pyridin-7-yloxy)piperidin-1-yl)methyl)isoxazol-3-yl)oxy)ethoxy)ethoxy)ethoxy)ethoxy)isoindoline-1,3-dione]	100 to 300
